Reference: PubChem BioAssay (NCI)
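Cells were grown in 96-well plates and exposed to each compound for 48 hours at five concentrations; endpoints were interpolated linearly between bracketing concentrations, or set to the highest concentration if not reached. GI50 is the concentration that inhibits growth by half. TGI denotes the concentration required for complete inhibition of growth.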

What was measured:
Test in all cases: NCI anticancer screen, dose series, 48 h
OVCAR-3 ovarian = tested on: OVCAR-3 ovarian
SK-MEL-5 melanoma = tested on: SK-MEL-5 melanoma
SF-539 CNS = tested on: SF-539 CNS
IGROV1 ovarian = tested on: IGROV1 ovarian
SK-MEL-2 melanoma = tested on: SK-MEL-2 melanoma
KM12 colon = tested on: KM12 colon
SK-OV-3 ovarian = tested on: SK-OV-3 ovarian
PC-3 prostate = tested on: PC-3 prostate
MDA-MB-231 breast = tested on: MDA-MB-231 breast
MCF7 breast = tested on: MCF7 breast

Row | SMILES | TGI (OVCAR-3 ovarian) | TGI (SK-MEL-5 melanoma) | TGI (SF-539 CNS) | TGI (IGROV1 ovarian) | TGI (SK-MEL-2 melanoma) | TGI (KM12 colon) | TGI (SK-OV-3 ovarian) | GI50 (PC-3 prostate) | TGI (PC-3 prostate) | GI50 (MDA-MB-231 breast) | TGI (MDA-MB-231 breast) | GI50 (SK-MEL-5 melanoma) | GI50 (SF-539 CNS) | GI50 (IGROV1 ovarian) | GI50 (MCF7 breast) | TGI (MCF7 breast) | GI50 (SK-MEL-2 melanoma) | GI50 (KM12 colon) | GI50 (SK-OV-3 ovarian) | GI50 (OVCAR-3 ovarian)
1 | O=C1Cc2ccccc2N1/N=C\c1ccc(O)cc1 | > 100 µM | > 100 µM | > 100 µM | > 100 µM | > 100 µM | > 100 µM | > 100 µM | – | – | – | – | – | – | – | – | – | – | – | – | –
2 | COC1=NN2C(OC)(c3ccccc3)c3c(-c4ccccc4)sc(-c4ccccc4)c3C2(c2ccccc2)S1 (stereo not given) | > 10 µM | – | > 100 µM | > 100 µM | > 100 µM | > 100 µM | > 100 µM | – | – | – | – | – | – | – | – | – | – | – | – | –
3 | CC1SC2=NC3=C(c4ccccc4C3=O)C(c3ccc(Br)cc3)N2C1=O (stereo not given) | > 100 µM | > 100 µM | – | > 100 µM | > 100 µM | > 100 µM | > 100 µM | – | – | – | – | – | – | – | – | – | – | – | – | –
4 | CCOC(=O)c1c(-c2[nH]c(C(=O)OCc3ccccc3)c(C)c2C(=O)OCC)[nH]c(C(=O)OCc2ccccc2)c1C | > 100 µM | > 100 µM | > 100 µM | > 100 µM | > 100 µM | – | > 100 µM | – | – | – | – | – | – | – | – | – | – | – | – | –
5 | NNC(=O)CC(=O)Nc1ccccc1F | > 100 µM | > 100 µM | > 100 µM | > 100 µM | – | > 100 µM | > 100 µM | – | – | – | – | – | – | – | – | – | – | – | – | –
6 | C#CCOCn1cnc2ncnc(Cl)c21 | > 100 µM | > 100 µM | > 100 µM | > 100 µM | > 100 µM | > 100 µM | > 100 µM | – | – | – | – | – | – | – | – | – | – | – | – | –
7 | C(=C1\CCC/C(=C/c2ccccc2)C1=NNc1ccccc1)/c1ccccc1 | > 100 µM | > 100 µM | > 100 µM | > 100 µM | > 100 µM | > 100 µM | > 100 µM | – | – | – | – | – | – | – | – | – | – | – | – | –
8 | OCCc1cnco1 | > 100 µM | > 100 µM | > 100 µM | > 100 µM | – | > 100 µM | > 100 µM | – | – | – | – | – | – | – | – | – | – | – | – | –
9 | CC1=C(C(=O)Nc2ccccc2C)C(c2ccc(N(C)C)cc2)C(C(=O)Nc2ccccc2C)=C(C)N1 | > 100 µM | > 100 µM | > 100 µM | > 100 µM | > 100 µM | > 100 µM | > 100 µM | – | – | – | – | – | – | – | – | – | – | – | – | –
10 | CSC(=S)N(C)NC(=O)c1cccc(C(=O)NN(C)C(=S)SC)n1 | – | > 100 µM | 70.1 µM | 49.9 µM | – | > 100 µM | – | – | – | – | – | – | – | – | – | – | – | – | – | –
11 | COc1cc2c(c3oc(-c4ccc5c(c4)OCO5)c(O)c(=O)c13)CCC(C)(C)O2 | > 100 µM | > 100 µM | > 100 µM | > 100 µM | > 100 µM | > 100 µM | > 100 µM | – | – | – | – | – | – | – | – | – | – | – | – | –
12 | CN(C)c1nc(N(C)C)nc(N(C)CN(C)c2nc(N(C)C)nc(N(C)C)n2)n1 | > 100 µM | > 100 µM | > 100 µM | > 100 µM | > 100 µM | > 100 µM | > 100 µM | – | – | – | – | – | – | – | – | – | – | – | – | –
13 | COc1cc(NCC(C#N)C#N)ccc1N=Nc1ccc([N+](=O)[O-])cc1 | > 100 µM | > 100 µM | > 100 µM | > 100 µM | > 100 µM | > 100 µM | > 100 µM | – | – | – | – | – | – | – | – | – | – | – | – | –
14 | COc1cc(C2c3cc4c(cc3C3OC(=O)C2C3CO)OCO4)cc(OC)c1OC (stereo not given) | – | 0.047 µM | 0.0668 µM | > 100 µM | > 100 µM | > 100 µM | 0.0722 µM | 0.0285 µM | > 100 µM | 0.03 µM | 0.0901 µM | 0.0176 µM | < 0.0122 µM | 0.035 µM | < 0.01 µM | > 100 µM | 0.0337 µM | 0.0132 µM | 0.0217 µM | –
15 | Cc1cn(C2C=CC(=O)C(C)O2)c(=O)[nH]c1=O (stereo not given) | 31.4 µM | 28.1 µM | 32.8 µM | 34.4 µM | – | 30.1 µM | > 100 µM | – | – | – | – | – | – | – | – | – | – | – | – | –
16 | CC(=O)OCCC/C(=C\c1ccc2ccccc2c1)[N+](=O)[O-] | 3.08 µM | 3.29 µM | 3.32 µM | 3.98 µM | 3.62 µM | 3.18 µM | 18.5 µM | 1.93 µM | 4.24 µM | 2.02 µM | 4.59 µM | 1.72 µM | 1.76 µM | 1.89 µM | – | – | 1.71 µM | 1.59 µM | 5.26 µM | 1.52 µM
17 | CCCNC(=O)c1cc2ccccc2cc1C(=O)OC | > 100 µM | > 100 µM | > 100 µM | > 100 µM | > 100 µM | > 100 µM | > 100 µM | – | – | – | – | – | – | – | – | – | – | – | – | –
18 | N/C(=N\OC(=O)NC(Cl)=C(Cl)Cl)c1cc(C(F)(F)F)cc(C(F)(F)F)c1 | 28.6 µM | 89.6 µM | 29.9 µM | 66 µM | – | 31.1 µM | 84.4 µM | – | 38.9 µM | – | 34.2 µM | – | – | – | – | > 100 µM | – | – | – | –
19 | CSc1nc2c(nc(N)n2C2OCC(O)C(O)C2O)c(=O)[nH]1 (stereo not given) | > 100 µM | > 100 µM | > 100 µM | > 100 µM | – | > 100 µM | > 100 µM | – | – | – | – | – | – | – | – | – | – | – | – | –
20 | O=C1C2C(C(=O)[N]1[Hg][c]1ccccc1)C1(Cl)C(Cl)=C(Cl)C2(Cl)C1(Cl)Cl (stereo not given) | 0.467 µM | 2.17 µM | – | 3.63 µM | 3.15 µM | 21.5 µM | 5.17 µM | 6.42 µM | 23.7 µM | – | – | 1 µM | – | 1.2 µM | – | – | 1.49 µM | 8.7 µM | 1.87 µM | 0.229 µM
21 | CNC1=C(C)C(=O)C(C)=C(C(C)(C)CC(=O)n2cc(F)c(=O)[nH]c2=O)C1=O | > 100 µM | > 100 µM | > 100 µM | > 100 µM | > 100 µM | > 100 µM | > 100 µM | – | – | – | – | – | – | – | – | – | – | – | – | –
22 | O=C1C=C(N2CC2)c2ccccc2C1=O | 3.27 µM | 3.04 µM | 3.34 µM | 3.23 µM | 4.34 µM | 3.27 µM | 3.41 µM | – | – | 2.05 µM | 5.11 µM | 1.6 µM | 1.83 µM | 1.79 µM | 1.48 µM | 3.76 µM | 2.28 µM | 1.78 µM | 1.92 µM | 1.77 µM
23 | COc1ccc(-c2cc(-c3ccccc3)c(C#N)c(=O)[nH]2)cc1 | > 100 µM | > 100 µM | > 100 µM | > 100 µM | – | > 100 µM | > 100 µM | – | – | – | – | – | – | – | – | – | – | – | – | –
24 | CC12C=CC(C)(O1)C1C2c2ccccc2S1(=O)=O (stereo not given) | > 100 µM | > 100 µM | > 100 µM | 95.3 µM | – | > 100 µM | > 100 µM | 66.8 µM | > 100 µM | 69.9 µM | > 100 µM | 38.7 µM | 85.4 µM | 25.1 µM | 50.4 µM | > 100 µM | – | > 100 µM | > 100 µM | 52.7 µM
